Like-named read-outs stand apart in the source and are kept apart here. Each block holds one compound with its values, some of them ahead of it.
What was measured:
[1] = test system: HT-1080-FAP tumor xenografts; experiment: Small-animal imaging (PET, scintigraphy) in HT-1080-FAP tumor bearing mice; type: in vivo, mouse; details: for tumor uptake in vivo: Tc-99m labeled, scintigraphy
Experimental: For in vivo experiments, 8 week old BALB/c nu/nu mice (Charles River) were subcutaneously inoculated into the right trunk with 5×10^6 with HT-1080-FAP, Capan-2 or SK-LMS-1 cells, respectively. When the size of the tumor reached approximately 1 cm^3, the radiolabeled compound was injected via the tail vein (˜10 MBq for small-animal PET imaging; ˜1 MBq for organ distribution). […] Images were reconstructed iteratively using the 3D-OSEM+MAP method and were converted to standardized uptake value (SUV) images. Quantification was done using a ROI technique and expressed as SUV mean. For organ distribution of Lu-177 labeled compound ([…]), the animals (n=3 for each time point) were sacrificed after indicated time points (from 30 min to 24 h). The distributed radioactivity was measured in all dissected organs and in blood using a γ-counter (Cobra Autogamma, Packard). The values are expressed as percentage of injected dose per gram of tissue (% ID/g).

human FAP-α = human FAP-α (Homo sapiens (Human), UniProt Q12884); experiment: Competitive binding of radiolabeled compound to HT-1080-FAP cells against unlabeled compound; details: for IC50: read-out: IC50; for IC50-values: Cu-64 labeled
Chain of human FAP-α (Q12884 whole entry): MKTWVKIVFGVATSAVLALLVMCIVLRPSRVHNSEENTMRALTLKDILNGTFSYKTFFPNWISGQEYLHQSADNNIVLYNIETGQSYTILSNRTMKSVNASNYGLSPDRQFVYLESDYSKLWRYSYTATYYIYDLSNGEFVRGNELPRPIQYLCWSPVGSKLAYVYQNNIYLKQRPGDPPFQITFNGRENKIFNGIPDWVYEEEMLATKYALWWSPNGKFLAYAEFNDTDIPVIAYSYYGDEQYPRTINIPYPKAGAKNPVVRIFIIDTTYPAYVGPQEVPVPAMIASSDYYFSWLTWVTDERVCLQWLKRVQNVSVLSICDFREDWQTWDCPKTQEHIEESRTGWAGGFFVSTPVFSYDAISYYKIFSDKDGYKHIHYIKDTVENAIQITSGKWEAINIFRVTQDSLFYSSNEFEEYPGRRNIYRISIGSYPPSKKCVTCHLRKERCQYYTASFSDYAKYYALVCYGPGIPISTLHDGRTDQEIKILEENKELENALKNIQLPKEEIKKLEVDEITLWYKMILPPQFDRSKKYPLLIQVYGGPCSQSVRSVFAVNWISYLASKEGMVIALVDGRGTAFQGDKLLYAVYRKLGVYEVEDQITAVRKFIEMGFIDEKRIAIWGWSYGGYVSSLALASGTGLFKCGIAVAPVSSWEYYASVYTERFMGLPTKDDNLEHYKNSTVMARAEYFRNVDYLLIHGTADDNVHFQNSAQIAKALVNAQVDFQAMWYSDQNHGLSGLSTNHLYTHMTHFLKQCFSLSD
Experimental: Competition experiments were performed by simultaneous exposure to unlabeled (10^−5 M to 10^−9M) and radiolabeled compound for 60 min. […] For internalization experiments, surface bound activity was removed by incubating the cells with 1 M glycine-HCl buffer for 10 min. The radioactivity was measured using a γ-counter, normalized to 1 mio cells and calculated as percentage of applied dose (% ID).
The medium was replaced by 1 mL fresh medium without fetal calf serum. […] Competition experiments were performed by simultaneous exposure to unlabeled (10^−5 M to 10^−9 M) and radiolabeled compound for 60 min. […] In all experiments, the cells were washed with 1 mL phosphate-buffered saline pH 7.4 for 2 times and subsequently lysed with 1.4 ml lysis buffer (0.3 M NaOH, 0.2% SDS). Radioactivity was determined in a γ-counter (Cobra II, Packard), normalized to 1 mio cells and calculated as percentage of the applied dose (% ID). Each experiment was performed 3 times, and 3 repetitions per independent experiment were acquired.

[2] = Blood pool clearance from SUVmean of the heart; type: in vivo; details: for Plateau value (SUVmean): hypothetical plateau, two phase exponential decay of heart SUVmean; for Blood pool-clearence (T1/2 [min]): rate determining half-life, two phase exponential decay of heart SUVmean 0.375-60 min
Excerpt: The calculated plateau values, which were higher for Ga-68 labeled FAPI-13, -21, -36 and AlF-18 labeled FAPI-74 theoretically correspond to a higher fraction of compound which is not cleared due to unspecific binding or by remaining in circulating (Table 12).

[3] = test system: HT-1080-FAP tumor xenografts; experiment: Organ distribution ex vivo in HT-1080-FAP tumor bearing nude mice; set-up: species or system mouse; details: for Tumor uptake 1 h / Tumor uptake 4 h / Tumor uptake 24 h: HT-1080-FAP tumor bearing nude mice, mean ± SD, n = 3
Experimental: For in vivo experiments, 8 week old BALB/c nu/nu mice (Charles River) were subcutaneously inoculated into the right trunk with 5×10^6 with HT-1080-FAP, Capan-2 or SK-LMS-1 cells, respectively. When the size of the tumor reached approximately 1 cm^3, the radiolabeled compound was injected via the tail vein (˜10 MBq for small-animal PET imaging; ˜1 MBq for organ distribution). PET imaging was performed up to 140 min after intravenous injection of 1 MBq of Ga-68 labeled compound per mouse using the Inveon PET small-animal PET scanner (Siemens). Images were reconstructed iteratively using the 3D-OSEM+MAP method and were converted to standardized uptake value (SUV) images. Quantification was done using a ROI technique and expressed as SUV mean. For organ distribution of Lu-177 labeled compound (approx. […] per mouse), the animals (n=3 for each time point) were sacrificed after indicated time points (from 30 min to 24 h). The distributed radioactivity was measured in all dissected organs and in blood using a γ-counter (Cobra Autogamma, Packard). The values are expressed as percentage of injected dose per gram of tissue (% ID/g).

HT-1080-FAP cells = experiment: Efflux experiments in HT-1080-FAP cells; type: cell-based, human; details: Cu-64 labeled
Experimental: Radioligand binding studies were performed using HT-1080-FAP cells. The radiolabeled compound was added to the cell culture and incubated for different time intervals ranging from 10 min to 24 h. Competition experiments were performed by simultaneous exposure to unlabeled (10^−5 M to 10^−9M) and radiolabeled compound for 60 min. For efflux experiments, radioactive medium was removed after incubation for 60 min and replaced by non-radioactive medium for time intervals ranging from 1 to 24 h. For internalization experiments, surface bound activity was removed by incubating the cells with 1 M glycine-HCl buffer for 10 min. The radioactivity was measured using a γ-counter, normalized to 1 mio cells and calculated as percentage of applied dose (% ID).
For radioligand binding studies, cells were seeded in 6-well plates and cultivated for 48 h to a final confluence of approx. 80-90% (1.2-2 mio cells/well). The medium was replaced by 1 mL fresh medium without fetal calf serum. The radiolabeled compound was added to the cell culture and incubated for different time intervals ranging from 10 min to 24 h. Competition experiments were performed by simultaneous exposure to unlabeled (10^−5 M to 10^−9 M) and radiolabeled compound for 60 min. For efflux experiments, radioactive medium was removed after incubation for 60 min and replaced by non-radioactive medium for time intervals ranging from 1 to 24 h. In all experiments, the cells were washed with 1 mL phosphate-buffered saline pH 7.4 for 2 times and subsequently lysed with 1.4 ml lysis buffer (0.3 M NaOH, 0.2% SDS). Radioactivity was determined in a γ-counter (Cobra II, Packard), normalized to 1 mio cells and calculated as percentage of the applied dose (% ID). Each experiment was performed 3 times, and 3 repetitions per independent experiment were acquired.

[4] = Lu-177-labeled compound, unlabeled compound as competitor, HT-1080-FAP cells

SMILES: N#C[C@@H]1CC(F)(F)CN1C(=O)CNC(=O)c1ccnc2ccc(OCCCN3CCN(C(=O)CN(Cc4nccn4CC(=O)N[C@@H](CC(C(=O)O)C(=O)O)C(=O)O)Cc4nccn4CC(=O)N[C@@H](CC(C(=O)O)C(=O)O)C(=O)O)CC3)cc12 [FAPI-34]
tumor uptake in vivo [1]: continuously enriched within the tumor

SMILES: N#C[C@@H]1CC(F)(F)CN1C(=O)CNC(=O)c1ccnc2ccc(OCCCN3CCN(CCCN4CCN(CC(=O)O)CCN(CC(=O)O)CCN(CC(=O)O)CC4)CC3)cc12 [FAPI-48]
IC50 (human FAP-α; [4]): 26.3 nM

SMILES: CN(CCCN1CCN(C(=O)CN2CCN(CC(=O)O)CCN(CC(=O)O)CC2)CC1)c1ccc2nccc(C(=O)NCC(=O)N3CC(F)(F)C[C@H]3C#N)c2c1 [FAPI-52]
IC50-values (human FAP-α; HT-1080-FAP cells): lower nanomolar range

SMILES: N#C[C@@H]1CCCN1C(=O)CNC(=O)c1ccnc2ccc(OCCCN3CCN(C(=O)CN4CCN(CC(=O)O)CCN(CC(=O)O)CC4)CC3)cc12 [FAPI-74]
IC50 (human FAP-α; F-18-FAPI derivatives, table title says EC50, head says IC50): 9.2 nM
Plateau value (SUVmean) [2]: 0.32
Blood pool-clearence (T1/2 [min]) [2]: 2.4 min
PET imaging findings ([1]; F-18 labeled (nicotinamide or AlF-18 NOTA), up to 140 min after i.v.): high target specificity and fast clearance

SMILES: N#C[C@@H]1CC(F)(F)CN1C(=O)CNC(=O)c1ccnc2ccc(OCCCN3CCN(CCN4CCN(CC(=O)O)CCN(CC(=O)O)CCN(CC(=O)O)CC4)CC3)cc12 [FAPI-47]
IC50 (human FAP-α; [4]): 42 nM

SMILES: CN(CCCN1CCN(C(=O)CN2CCN(CC(=O)O)CCN(CC(=O)O)CCN(CC(=O)O)CC2)CC1)c1ccc2nccc(C(=O)NCC(=O)N3CC(F)(F)C[C@H]3C#N)c2c1 [FAPI-46]
tumor-blood-ratios ([3]; Lu labeled, 1, 4 and 24 h, compared with FAPI-04): significantly higher ratios than FAPI-04
IC50 (human FAP-α; [4]): 13.5 nM
Plateau value (SUVmean) [2]: 0.19
Blood pool-clearence (T1/2 [min]) [2]: 5.3 min

SMILES: N#C[C@@H]1CC(F)(F)CN1C(=O)CNC(=O)c1ccnc2ccc(OCCCN3CCN(C(=O)CN(Cc4nccn4CC(=O)O)Cc4nccn4CC(=O)O)CC3)cc12 [FAPI-19]
IC50 (human FAP-α; Tc-99m labeled, HT-1080-FAP cells): 6.4 nM
tumor uptake in vivo [1]: insufficient tumor uptake

Continued, in another order:

Tumor uptake 1 h [3]: 3.4 ± 1.13 % ID/g
Tumor uptake 4 h [3]: 4.6 ± 0.32 % ID/g
Tumor uptake 24 h [3]: 1.1 ± 0.25 % ID/g
IC50 (human FAP-α; [4]): 9.1 nM
SMILES: N#C[C@@H]1CC(F)(F)CN1C(=O)CNC(=O)c1ccnc2ccc(OCCOCCOCCN3CCN(C(=O)CN4CCN(CC(=O)O)CCN(CC(=O)O)CCN(CC(=O)O)CC4)CC3)cc12 [FAPI-15]

IC50 (human FAP-α; [4]): 7.2 nM
SMILES: N#C[C@@H]1CC(F)(F)CN1C(=O)CNC(=O)c1ccnc2ccc(OCCCN3C[C@@H]4C[C@H]3CN4C(=O)CN3CCN(CC(=O)O)CCN(CC(=O)O)CCN(CC(=O)O)CC3)cc12 [FAPI-20]

IC50 (human FAP-α; [4]): 12.7 nM
SMILES: N#C[C@@H]1CC(F)(F)CN1C(=O)CNC(=O)c1ccnc2ccc(SCCCN3CCN(C(=O)CN4CCN(CC(=O)O)CCN(CC(=O)O)CCN(CC(=O)O)CC4)CC3)cc12 [FAPI-40]

IC50 (human FAP-α; [4]): 8.3 nM
SMILES: N#C[C@@H]1CC(F)(F)CN1C(=O)CNC(=O)c1ccnc2ccc(NCCCN3CCN(C(=O)CN4CCN(CC(=O)O)CCN(CC(=O)O)CCN(CC(=O)O)CC4)CC3)cc12 [FAPI-41]

Tumor uptake 1 h [3]: 6.3 ± 0.57 % ID/g
Tumor uptake 4 h [3]: 8.7 ± 0.77 % ID/g
Tumor uptake 24 h [3]: 4.8 ± 1.71 % ID/g
IC50 (human FAP-α; [4]): 4.5 nM
Plateau value (SUVmean) [2]: 0.27
SMILES: N#C[C@@H]1CC(F)(F)CN1C(=O)CNC(=O)c1ccnc2ccc(OCCCC3CCN(C(=O)CN4CCN(CC(=O)O)CCN(CC(=O)O)CCN(CC(=O)O)CC4)CC3)cc12 [FAPI-13]
Blood pool-clearence (T1/2 [min]) [2]: 5.5 min

IC50-values (human FAP-α; HT-1080-FAP cells): lower nanomolar range
calculated in vitro-half-life (efflux) (HT-1080-FAP cells): 720 min
SMILES: N#C[C@@H]1CC(F)(F)CN1C(=O)CNC(=O)c1ccnc2ccc(OCCCN3CCN(C(=O)CN4CCN(CC(=O)O)CCN(CC(=O)O)CC4)CC3)cc12 [FAPI-42]

IC50 (human FAP-α; [4]): 11.3 nM
SMILES: N#C[C@@H]1CC(F)(F)CN1C(=O)CNC(=O)c1ccnc2ccc(CCCCN3CCN(C(=O)CN4CCN(CC(=O)O)CCN(CC(=O)O)CCN(CC(=O)O)CC4)CC3)cc12 [FAPI-39]

Tumor uptake 1 h [3]: 6.0 ± 0.90 % ID/g
Tumor uptake 4 h [3]: 5.8 ± 0.60 % ID/g
Tumor uptake 24 h [3]: 2.8 ± 0.40 % ID/g
IC50 (human FAP-α; [4]): 17.2 nM
SMILES: N#C[C@@H]1CC(F)(F)CN1C(=O)CNC(=O)c1ccnc2ccc(OCCCCN3CCN(C(=O)CN4CCN(CC(=O)O)CCN(CC(=O)O)CCN(CC(=O)O)CC4)CC3)cc12 [FAPI-05]

Source: patent US20250127937A1, “FAP INHIBITOR” (UNIVERSITÄT HEIDELBERG, priority 2018, published 2025)
